Read-outs that look alike come from different tables or passages of the source.
Tested on: Vcap cells (androgen receptor (+) prostate cancer cells)
Assay: CTG cell proliferation assay (CellTiter-Glo)
Details: for viability at 0.1 µM / viability at 1 µM / viability at 10 µM: Homo sapiens, VCaP, 120 h; for Cell survival rate: notes of Table 9: 1.0 μM tested compound in combination with 1.0 μM Enzalutamide
[1] = read-out: Survival rate of Vcap cells, Table 4, tested compound alone, 0.1 μM
[2] = read-out: Survival rate of Vcap cells, Table 4, tested compound alone, 1 μM
[3] = read-out: Survival rate of Vcap cells, Table 4, tested compound alone, 10 μM
[4] = read-out: Survival rate of Vcap cells, Table 10, tested compound alone, 0.1 μM
[5] = read-out: Survival rate of Vcap cells, Table 10, tested compound alone, 1.0 μM
[6] = read-out: Survival rate of Vcap cells, Table 10, tested compound alone, 10 μM
[7] = Table 4, tested compound alone, 1 μM
[8] = Table 10, tested compound 0.1 μM in combination with 1 μM B001
[9] = Table 10, tested compound 1.0 μM in combination with 1 μM B001
[10] = Table 10, tested compound 10 μM in combination with 1 μM B001
[11] = read-out: Survival rate of Vcap cells, Table 9, tested compound alone, 0.1 μM
[12] = read-out: Survival rate of Vcap cells, Table 9, tested compound alone, 1.0 μM
[13] = read-out: Survival rate of Vcap cells, Table 9, tested compound alone, 10 μM
[14] = Table 9, tested compound 0.1 μM in combination with 1 μM ARN-509
[15] = Table 9, tested compound 0.1 μM in combination with 1 μM Enzalutamide
[16] = Table 9, tested compound 1.0 μM in combination with 1 μM ARN-509
[17] = Table 9, tested compound 1.0 μM in combination with 1 μM Enzalutamide
[18] = Table 9, tested compound 10 μM in combination with 1 μM ARN-509
[19] = Table 9, tested compound 10 μM in combination with 1 μM Enzalutamide
[20] = read-out: Survival rate of Vcap cells, Table 3, tested compound alone, 0.1 μM
[21] = read-out: Survival rate of Vcap cells, Table 3, tested compound alone, 1.0 μM
[22] = read-out: Survival rate of Vcap cells, Table 3, tested compound alone, 10 μM
[23] = Table 3, tested compound 0.1 μM in combination with 1 μM ARN-509
[24] = Table 3, tested compound 0.1 μM in combination with 1 μM Enzalutamide
[25] = Table 3, tested compound 1.0 μM in combination with 1 μM ARN-509
[26] = Table 3, tested compound 1.0 μM in combination with 1 μM Enzalutamide
[27] = Table 3, tested compound 10 μM in combination with 1 μM ARN-509
[28] = Table 3, tested compound 10 μM in combination with 1 μM Enzalutamide
[29] = Table 3, tested compound alone, 1.0 μM
[30] = Table 4, tested compound 0.1 μM in combination with 1 μM Abiraterone acetate
[31] = Table 4, tested compound 0.1 μM in combination with 1 μM Galeterone
[32] = Table 4, tested compound 1 μM in combination with 1 μM Abiraterone acetate
[33] = Table 4, tested compound 1 μM in combination with 1 μM Galeterone
[34] = Table 4, tested compound 10 μM in combination with 1 μM Abiraterone acetate
[35] = Table 4, tested compound 10 μM in combination with 1 μM Galeterone
[36] = read-out: Survival rate of Vcap cells, Table 5, tested compound alone, 0.1 μM
[37] = read-out: Survival rate of Vcap cells, Table 5, tested compound alone, 1.0 μM
[38] = read-out: Survival rate of Vcap cells, Table 5, tested compound alone, 10 μM
[39] = Table 5, tested compound 0.1 μM in combination with 1 μM ODM-201
[40] = Table 5, tested compound 1.0 μM in combination with 1 μM ODM-201
[41] = Table 5, tested compound 10 μM in combination with 1 μM ODM-201
[42] = Table 5, tested compound alone, 1.0 μM
[43] = Table 10, tested compound 0.1 μM in combination with 1 μM K001
[44] = Table 10, tested compound 1.0 μM in combination with 1 μM K001
[45] = Table 10, tested compound 10 μM in combination with 1 μM K001

Method: In vitro test of the inhibition effect of the compound in combination with androgen receptor pathway modulators and the like on the prostate cancer cell proliferation.
The tested compounds were used alone or in combination with other androgen receptor pathway modulators respectively. […] After that, 100 μl of CellTiter-Glo® cell viability assay reagent (Promega, catalogue number G7570) was added to each well and mixed well on a vibrator for 10 minutes to induce cell lysis. The 96-well plate was placed at room temperature for 10 minutes, so as to stabilize its luminescence signal. A white bottom membrane was pasted on the bottom of the plate and the plate was tested using EnSpire.

SMILES: CC(=O)O[C@H]1CC[C@@]2(C)C(=CC[C@@H]3[C@@H]2CC[C@]2(C)C(c4cccnc4)=CC[C@@H]32)C1 [Abiraterone acetate, reference compound]
- viability at 0.1 µM [1]: 106%
- viability at 1 µM [2]: 91.7%
- viability at 10 µM [3]: 31.4%
- viability at 0.1 µM [4]: 96.1%
- viability at 1 µM [5]: 97%
- viability at 10 µM [6]: 60.5%
- Survival rate of Vcap cells [7]: 91.7%
- Survival rate of Vcap cells [8]: 79.8%
- Survival rate of Vcap cells [9]: 70.5%
- Survival rate of Vcap cells [10]: 66.9%

SMILES: C[C@]12CC[C@H](O)CC1=CC[C@@H]1[C@@H]2CC[C@]2(C)C(c3cccnc3)=CC[C@@H]12 [Abiraterone, reference compound]
- viability at 0.1 µM [4]: 98.5%
- viability at 1 µM [5]: 92.4%
- viability at 10 µM [6]: 81.9%
- Survival rate of Vcap cells [8]: 78.9%
- Survival rate of Vcap cells [9]: 74.9%
- Survival rate of Vcap cells [10]: 66.3%

SMILES: Nc1cccc2c1CN([C@H]1CCC(=O)NC1=O)C2=O [B002]
- viability at 0.1 µM [11]: 85.6%
- viability at 1 µM [12]: 79.8%
- viability at 10 µM [13]: 75.9%
- Survival rate of Vcap cells [14]: 52.5%
- Survival rate of Vcap cells [15]: 53.9%
- Survival rate of Vcap cells [16]: 44.7%
- Survival rate of Vcap cells [17]: 44.7%
- Survival rate of Vcap cells [18]: 44.3%
- Survival rate of Vcap cells [19]: 43.1%
- Cell survival rate: 44.7%

SMILES: Nc1cccc2c1CN([C@@H]1CCC(=O)NC1=O)C2=O [B003]
- viability at 0.1 µM [11]: 83.7%
- viability at 1 µM [12]: 81.3%
- viability at 10 µM [13]: 80.4%
- Survival rate of Vcap cells [14]: 54.0%
- Survival rate of Vcap cells [16]: 46.5%
- Survival rate of Vcap cells [17]: 45.4%
- Survival rate of Vcap cells [18]: 42.4%
- Survival rate of Vcap cells [19]: 44.2%

SMILES: [2H]C1(N2Cc3c(N)cccc3C2=O)CCC(=O)NC1=O (stereo not drawn) [B004]
- viability at 0.1 µM [11]: 94.1%
- viability at 1 µM [12]: 88.4%
- viability at 10 µM [13]: 88%
- Survival rate of Vcap cells [14]: 59.1%
- Survival rate of Vcap cells [15]: 60.4%
- Survival rate of Vcap cells [16]: 51.2%
- Survival rate of Vcap cells [17]: 50.8%
- Survival rate of Vcap cells [18]: 48.0%
- Survival rate of Vcap cells [19]: 51.1%
- Cell survival rate: 51.2%

SMILES: [2H][C@]1(N2Cc3c(N)cccc3C2=O)CCC(=O)NC1=O [B005]
- viability at 0.1 µM [11]: 91.1%
- viability at 1 µM [12]: 85%
- viability at 10 µM [13]: 83.5%
- Survival rate of Vcap cells [14]: 53.4%
- Survival rate of Vcap cells [15]: 56.5%
- Survival rate of Vcap cells [16]: 47.6%
- Survival rate of Vcap cells [17]: 48.4%
- Survival rate of Vcap cells [18]: 46.2%
- Survival rate of Vcap cells [19]: 46.5%
- Cell survival rate: 47.6%

SMILES: [2H][C@@]1(N2Cc3c(N)cccc3C2=O)CCC(=O)NC1=O [B006]
- viability at 0.1 µM [11]: 91.7%
- viability at 1 µM [12]: 89.7%
- viability at 10 µM [13]: 85.7%
- Survival rate of Vcap cells [14]: 63.2%
- Survival rate of Vcap cells [15]: 61.2%
- Survival rate of Vcap cells [16]: 51.7%
- Survival rate of Vcap cells [17]: 50.5%
- Survival rate of Vcap cells [18]: 45.0%
- Survival rate of Vcap cells [19]: 48.3%
- Cell survival rate: 51.7%

SMILES: O=C1CCC(N2Cc3c(OCc4ccc(CN5CCOCC5)cc4)cccc3C2=O)C(=O)N1 (stereo not drawn) [D107]
- viability at 0.1 µM [20]: 85.3%
- viability at 1 µM [21]: 77.2%
- viability at 10 µM [22]: 69.3%
- viability at 0.1 µM [1]: 85.3%
- viability at 1 µM [2]: 77.2%
- viability at 10 µM [3]: 69.3%
- Survival rate of Vcap cells [23]: 37.0%
- Survival rate of Vcap cells [24]: 37.3%
- Survival rate of Vcap cells [25]: 36.3%
- Survival rate of Vcap cells [26]: 35.0%
- Survival rate of Vcap cells [27]: 34.2%
- Survival rate of Vcap cells [28]: 32.3%
- Survival rate of Vcap cells [29]: 77.2%
- Survival rate of Vcap cells [30]: 66.0%
- Survival rate of Vcap cells [31]: 43.9%
- Survival rate of Vcap cells [32]: 61.7%
- Survival rate of Vcap cells [33]: 42.4%
- Survival rate of Vcap cells [34]: 59.6%
- Survival rate of Vcap cells [35]: 40.0%
- Survival rate of Vcap cells [7]: 77.2%

SMILES: O=C1CC[C@H](N2Cc3c(OCc4ccc(CN5CCOCC5)cc4)cccc3C2=O)C(=O)N1 [D108]
- viability at 0.1 µM [36]: 73%
- viability at 1 µM [37]: 67.3%
- viability at 10 µM [38]: 58.5%
- Survival rate of Vcap cells [39]: 42.7%
- Survival rate of Vcap cells [40]: 40.1%
- Survival rate of Vcap cells [41]: 32.8%
- Survival rate of Vcap cells [42]: 67.3%

SMILES: Nc1cccc2c1C(=O)N(C1CCC(=O)NC1=O)C2=O (stereo not drawn) [F001]
- viability at 0.1 µM [36]: 79.7%
- viability at 1 µM [37]: 59.9%
- viability at 10 µM [38]: 55.7%
- Survival rate of Vcap cells [39]: 49.4%
- Survival rate of Vcap cells [40]: 40.9%
- Survival rate of Vcap cells [41]: 37.3%
- Survival rate of Vcap cells [42]: 59.9%

SMILES: C[C@]12CC[C@H](O)CC1=CC[C@@H]1[C@@H]2CC[C@]2(C)C(n3cnc4ccccc43)=CC[C@@H]12 [Galeterone, reference compound]
- Survival rate of Vcap cells (Table 4, tested compound alone, 0.1 μM): 95.9%
- Survival rate of Vcap cells [7]: 62.8%
- Survival rate of Vcap cells (Table 4, tested compound alone, 10 μM): 19.3%

SMILES: Cc1nc2cccc(N)c2c(=O)n1C1CCC(=O)NC1=O (stereo not drawn) [K001]
- viability at 0.1 µM [20]: 85.1%
- viability at 1 µM [21]: 65.8%
- viability at 10 µM [22]: 61.4%
- viability at 0.1 µM [1]: 85.1%
- viability at 1 µM [2]: 65.8%
- viability at 10 µM [3]: 61.4%
- viability at 0.1 µM [36]: 79.2%
- viability at 1 µM [37]: 59.7%
- viability at 10 µM [38]: 51%
- viability at 0.1 µM [4]: 91.2%
- viability at 1 µM [5]: 73.8%
- viability at 10 µM [6]: 66.1%
- Survival rate of Vcap cells [23]: 43.6%
- Survival rate of Vcap cells [24]: 42.4%
- Survival rate of Vcap cells [25]: 36.0%
- Survival rate of Vcap cells [26]: 36.4%
- Survival rate of Vcap cells [27]: 33.5%
- Survival rate of Vcap cells [28]: 35.1%
- Survival rate of Vcap cells [29]: 65.8%
- Survival rate of Vcap cells [30]: 70.4%
- Survival rate of Vcap cells [31]: 49.1%
- Survival rate of Vcap cells [32]: 53.1%
- Survival rate of Vcap cells [33]: 41.3%
- Survival rate of Vcap cells [34]: 48.1%
- Survival rate of Vcap cells [35]: 39.4%
- Survival rate of Vcap cells [7]: 65.8%
- Survival rate of Vcap cells [39]: 53.5%
- Survival rate of Vcap cells [40]: 40.4%
- Survival rate of Vcap cells [41]: 35.2%
- Survival rate of Vcap cells [42]: 59.7%

SMILES: C[C@](O)(COc1ccc(C#N)cc1)C(=O)Nc1ccc(C#N)c(C(F)(F)F)c1 [MK-2866, reference compound]
- viability at 0.1 µM [4]: 76.5%
- viability at 1 µM [5]: 77.4%
- viability at 10 µM [6]: 69.4%
- Survival rate of Vcap cells [8]: 64.8%
- Survival rate of Vcap cells [9]: 65.6%
- Survival rate of Vcap cells [10]: 57.8%

SMILES: CC(O)c1cc(C(=O)N[C@@H](C)Cn2ccc(-c3ccc(C#N)c(Cl)c3)n2)[nH]n1 (stereo partly drawn) [ODM-201, reference compound]
- viability at 0.1 µM [36]: 90.7%
- viability at 1 µM [37]: 69%
- viability at 10 µM [38]: 75.4%
- Survival rate of Vcap cells [42]: 69.0%

SMILES: C[C@]12C=CC(=O)C=C1CC[C@@H]1[C@@H]2C(=O)C[C@@]2(C)[C@H]1CC[C@]2(O)C(=O)CO [Prednisone, reference compound]
- viability at 0.1 µM [4]: 99.1%
- viability at 1 µM [5]: 99.7%
- viability at 10 µM [6]: 99.4%
- Survival rate of Vcap cells [8]: 87.6%
- Survival rate of Vcap cells [43]: 91.5%
- Survival rate of Vcap cells [9]: 78.7%
- Survival rate of Vcap cells [44]: 74.2%
- Survival rate of Vcap cells [10]: 73.8%
- Survival rate of Vcap cells [45]: 68.0%

SMILES: CC(O)(CS(=O)(=O)c1ccc(F)cc1)C(=O)Nc1ccc(C#N)c(C(F)(F)F)c1 (stereo not drawn) [bicalutamide, reference compound]
- viability at 0.1 µM [4]: 99.2%
- viability at 1 µM [5]: 94%
- viability at 10 µM [6]: 92%
- Survival rate of Vcap cells [8]: 77.1%
- Survival rate of Vcap cells [43]: 78.7%
- Survival rate of Vcap cells [9]: 69.0%
- Survival rate of Vcap cells [44]: 64.1%
- Survival rate of Vcap cells [10]: 67.1%
- Survival rate of Vcap cells [45]: 61.5%

From patent US20240173312A1, “Pharmaceutical Composition Comprising a Benzoheterocyclic Compound and Androgen Receptor Pathway Modulator and Application Thereof” (KANGPU BIOPHARMACEUTICALS, LTD., priority 2015, published 2024)
